Data reported in US20210179598A1, “SELECTIVE JAK2 INHIBITOR AND APPLICATION THEREOF” (EAST CHINA UNIVERSITY OF SCIENCE AND TECHNOLOGY, priority 2018, published 2021).
Where two headings read alike, the source gives them in different places.

What was measured:
[1] = target: JAK2 (Homo sapiens, UniProt O60674); experiment: JAK2 kinase activity test at molecular level (Z'-LYTE FRET); assay type: biochemical
Protocol: JAK2 can catalyze the transfer of a phosphate group of adenosine triphosphate (ATP) to a polypeptide substrate, and the polypeptide substrate is labeled with two fluorescent groups, coumarin and fluorescein. […] Therefore, the inhibition rates of different compounds can be calculated by measuring the ratio of enzyme-catalyzed substrate phosphorylation percentages.
10 μL reaction system, 2.5 μL test compound, 5 μL kinase/peptide substrate mixture and 2.5 μL ATP solution were added into a 384-well plate, shaken for 30 s, and incubated at room temperature for 1 hour. 5 μL of proteolytic enzyme and 15 μL of the reaction system were added and shaken for 30 s and incubated at room temperature for 1 h. 5 μL of stop reagent was added, and the reaction system with a total volume of 20 μL was shaken for 30 seconds. A microplate reader was used to detect the fluorescence signal. […] The inhibition rates of the compound at 7 concentration gradients were determined, and the IC50 value for each compound was calculated by fitting curve with Origin 8.0.
(§1) NOTE: HEL, SET-2, H3122 cells were purchased from ATCC (American type culture collection), Z′-LYTETM kinase assay platform was purchased from Invitrogen, HTRF KinEASETM-TK was purchased from Cisbio, and Cell Counting Kit-8 was purchased from Beyotime.

[2] = target: ALK (Homo sapiens, UniProt Q9UM73); experiment: ALK kinase IC50 test (HTRF); assay type: biochemical; conditions: Table 2
Text: According to HTRF method, the peptide substrate was labeled with a biotin, which can specifically bind to XL665-labeled streptavidin. When the kinase adds a phosphate group to the polypeptide substrate in the first step, its Eu-labeled specific phosphorylation antibody can recognize and bind to it. In this way, in the second step of detection, a complex of XL665-labeled streptavidin, phosphorylated peptide substrate and Eu-labeled phosphorylation antibody can be formed. Since the distance between XL665 and Eu is short, FRET can be formed. On the other hand, Eu has a relatively long fluorescence half-life and can be applied to time-resolved fluorescence detection.
10 μL of reaction system, 4 μL test compound, 2 μL kinase, 2 μL biotin-labeled substrate and 2 μL ATP, was added into a 384-well plate, shaken for 30 s, and incubated at room temperature for 1 hour. 5 μL of Eu-labeled phosphorylation site-specific antibody and 5 μL of XL665-labeled streptavidin were added. The reaction system was shaken for 30 s, and incubated at room temperature for 1 hour. A microplate reader was used to detect the fluorescence signal. The inhibition rates of the compounds under 8 concentration gradients were determined, and the IC50 value of each compound was calculated by fitting curve with Origin 8.0. […] Each experiment was performed in triplicate.
as §1

[3] = test system: SET 2 (JAK2 V617F) cells; experiment: CCK-8 cell proliferation detection, SET2 cells; assay type: cell-based; conditions: Homo sapiens, SET-2; Table 2; CCK-8, 72 hrs
Text: (§2) WST-8 (chemical name: 2-(2-methoxy-4-nitrophenyl)-3-(4-nitrophenyl)-5-(2,4-disulfo benzene)-2H-tetrazolium monosodium), which is reduced to a highly water-soluble yellow formazan product (Formazan dye) by the dehydrogenase in cells under the action of the electron carrier dimethyl 1-methoxy-5-methylphenazinium sulfate (1-Methoxy PMS). The amount of the produced formazan is proportional to the number of living cells. Therefore, the survival rate of cells can be calculated indirectly by measuring the absorbance at 450 nm. The half inhibition rate of the compound on the proliferation of H3122, SET2, HEL cells can be determined by the CCK-8 method.
(§3) RPIM medium containing 10% FBS was used to culture cells (100 μL per well), and 3500 cells were inoculated into a 96-well plate, and placed in a 37° C., 5% CO2 incubator for 24 h, until 50%-70% of the cell confluence was achieved. Drugs with different concentration gradients were added respectively, and incubated for another 72 hrs. […] And finally the absorption value of each well was measured at 450 nm.
as §1

[4] = test system: HEL (JAK2 V617F) cells; experiment: CCK-8 cell proliferation detection, HEL cells; assay type: cell-based; conditions: Homo sapiens, Table 2, CCK-8, 72 hrs
Text: as §2, §3, §1

[5] = test system: H3122 cells; experiment: CCK-8 cell proliferation detection, H3122 cells; assay type: cell-based; conditions: Homo sapiens, NCI-H3122; Table 2; CCK-8, 72 hrs
Text: as §2, §3, §1

[6] = Table 1, read-out: JAK2 kinase activity IC50

Chain of ALK (Q9UM73 19-1620, species assumed): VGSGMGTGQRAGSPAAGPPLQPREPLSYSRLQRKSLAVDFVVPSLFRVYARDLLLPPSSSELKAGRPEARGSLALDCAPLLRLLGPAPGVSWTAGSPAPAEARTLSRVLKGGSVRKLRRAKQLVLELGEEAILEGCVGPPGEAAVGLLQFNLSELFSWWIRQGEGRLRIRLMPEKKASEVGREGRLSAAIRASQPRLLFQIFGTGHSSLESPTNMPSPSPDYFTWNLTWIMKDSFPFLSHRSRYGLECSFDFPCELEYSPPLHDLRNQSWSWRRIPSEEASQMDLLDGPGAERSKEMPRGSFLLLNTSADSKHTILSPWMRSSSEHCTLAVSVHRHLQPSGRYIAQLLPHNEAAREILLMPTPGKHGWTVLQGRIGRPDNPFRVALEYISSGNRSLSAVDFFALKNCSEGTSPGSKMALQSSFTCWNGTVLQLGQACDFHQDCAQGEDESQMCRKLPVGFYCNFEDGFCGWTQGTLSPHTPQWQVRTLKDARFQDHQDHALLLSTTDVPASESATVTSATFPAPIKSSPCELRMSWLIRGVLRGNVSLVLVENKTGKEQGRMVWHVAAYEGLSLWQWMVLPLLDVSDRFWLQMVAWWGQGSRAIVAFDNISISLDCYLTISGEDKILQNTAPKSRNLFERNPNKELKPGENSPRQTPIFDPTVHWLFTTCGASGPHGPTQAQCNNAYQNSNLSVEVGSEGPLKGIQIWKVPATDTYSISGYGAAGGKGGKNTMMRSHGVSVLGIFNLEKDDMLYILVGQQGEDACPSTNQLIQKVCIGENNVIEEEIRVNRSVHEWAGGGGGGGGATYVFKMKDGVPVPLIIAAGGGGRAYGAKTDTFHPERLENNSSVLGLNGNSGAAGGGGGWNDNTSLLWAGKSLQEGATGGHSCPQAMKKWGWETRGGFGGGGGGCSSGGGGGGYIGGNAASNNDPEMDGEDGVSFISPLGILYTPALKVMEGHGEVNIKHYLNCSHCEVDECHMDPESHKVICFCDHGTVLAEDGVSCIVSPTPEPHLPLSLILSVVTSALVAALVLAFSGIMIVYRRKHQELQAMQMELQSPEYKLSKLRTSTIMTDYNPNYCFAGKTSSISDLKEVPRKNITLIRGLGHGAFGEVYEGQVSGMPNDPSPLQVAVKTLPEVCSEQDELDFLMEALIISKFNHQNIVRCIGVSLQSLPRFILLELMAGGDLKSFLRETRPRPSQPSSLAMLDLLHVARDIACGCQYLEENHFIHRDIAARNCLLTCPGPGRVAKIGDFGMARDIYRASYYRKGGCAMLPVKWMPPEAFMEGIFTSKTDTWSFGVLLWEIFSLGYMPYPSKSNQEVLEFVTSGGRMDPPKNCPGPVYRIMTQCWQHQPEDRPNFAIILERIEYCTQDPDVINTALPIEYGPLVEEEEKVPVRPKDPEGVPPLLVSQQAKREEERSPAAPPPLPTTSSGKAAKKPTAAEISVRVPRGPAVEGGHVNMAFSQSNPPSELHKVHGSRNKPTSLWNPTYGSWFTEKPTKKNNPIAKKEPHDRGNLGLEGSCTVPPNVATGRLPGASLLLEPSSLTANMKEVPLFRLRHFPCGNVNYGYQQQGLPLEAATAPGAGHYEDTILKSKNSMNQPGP
Chain of JAK2 (O60674 whole entry): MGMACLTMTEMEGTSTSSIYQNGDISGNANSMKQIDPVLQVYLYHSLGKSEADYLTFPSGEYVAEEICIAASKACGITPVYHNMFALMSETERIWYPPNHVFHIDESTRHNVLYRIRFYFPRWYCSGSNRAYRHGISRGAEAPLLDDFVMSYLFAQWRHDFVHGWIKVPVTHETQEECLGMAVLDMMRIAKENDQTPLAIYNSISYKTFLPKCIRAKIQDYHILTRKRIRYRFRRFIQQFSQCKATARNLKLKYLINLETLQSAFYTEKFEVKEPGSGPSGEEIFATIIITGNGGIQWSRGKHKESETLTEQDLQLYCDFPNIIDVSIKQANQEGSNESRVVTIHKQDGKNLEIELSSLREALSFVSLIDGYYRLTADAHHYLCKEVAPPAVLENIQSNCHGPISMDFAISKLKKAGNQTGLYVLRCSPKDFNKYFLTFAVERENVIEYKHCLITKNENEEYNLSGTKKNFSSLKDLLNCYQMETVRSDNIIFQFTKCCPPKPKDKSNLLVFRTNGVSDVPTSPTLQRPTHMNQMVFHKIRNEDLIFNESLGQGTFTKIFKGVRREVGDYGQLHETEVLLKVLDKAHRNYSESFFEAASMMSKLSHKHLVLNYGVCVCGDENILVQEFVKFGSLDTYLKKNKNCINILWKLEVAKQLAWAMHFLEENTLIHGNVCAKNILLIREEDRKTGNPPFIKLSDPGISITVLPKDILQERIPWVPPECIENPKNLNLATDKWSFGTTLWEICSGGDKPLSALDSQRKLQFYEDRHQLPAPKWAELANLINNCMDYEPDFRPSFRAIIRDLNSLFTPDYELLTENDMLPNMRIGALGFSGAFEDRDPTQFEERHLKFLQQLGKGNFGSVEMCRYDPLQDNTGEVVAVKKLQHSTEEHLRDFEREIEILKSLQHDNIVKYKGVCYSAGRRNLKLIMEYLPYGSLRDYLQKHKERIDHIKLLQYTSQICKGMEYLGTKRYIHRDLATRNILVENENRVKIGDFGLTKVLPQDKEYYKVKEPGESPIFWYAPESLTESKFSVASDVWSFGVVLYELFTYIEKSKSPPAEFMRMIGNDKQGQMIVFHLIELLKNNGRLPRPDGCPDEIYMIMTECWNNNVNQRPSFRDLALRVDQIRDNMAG

SMILES | IC50 [1, 6] [nM] | IC50 [2] [nM] | IC50 [5] [µM] | melting point [°C] | IC50 ([1]; Table 2, read-out: JAK2 IC50) [nM] | IC50 [3] [µM] | IC50 [4] [µM]
C[C@@H](Oc1cc(-c2cncc(N3CCNCC3)c2)cnc1N)c1c(Cl)ccc(F)c1Cl [WWQ-1093-23, (R)-5-[1-(2,6-dichloro-3-fluorophenyl)ethoxy]-5′-piperazine-[3,3′-dipyridine]-6-amine] | 119 ± 8.2 | 2440 | 1.54 ± 0.034 | 189.7 to 190.6 | – | 2.89 | 10.4
C[C@@H](Oc1cc(-c2cnn(C3CCNCC3)c2)cnc1N)c1ccccc1 [WWQ-1093-25, 4-[3-(1-phenylpropoxy)-2-aminopyridine]pyrazole-1-piperidine] | 215 ± 12.4 | 5430 | 3.52 ± 0.102 | 194.2 to 195 | – | 4.61 | 13.7
C[C@@H](Oc1cc(-c2cnn(C3CCOCC3)c2)cnc1N)c1c(Cl)ccc(F)c1Cl [WWQ-1093-27] | 64.7 ± 0.4 | 855 | 7.18 ± 0.838 | 188.1 to 190.4 | – | 1.68 | 8.05
COc1ccc(F)cc1C(C)Oc1cc(-c2cnn(C3CCNCC3)c2)cnc1N (centres unmarked) [WWQ-1093-71] | 3 ± 0.1 | 1330 | < 0.5 | 191.6 to 192.3 | 3 ± 0.1 | 0.616 | 9.97
C[C@@H](Nc1cc(-c2cnn(C3CCNCC3)c2)cnc1N)c1c(Cl)ccc(F)c1Cl [WWQ-1093-73, 4-{3-[1-(2,6-dichloro-3-fluorophenyl)ethylamino]-2-aminopyridine}pyrazole-1-piperidine] | 126 ± 5.3 | 3450 | 4.366 ± 0.005 | 191.5 to 191.7 | – | 2.2 | 13.4
CC(Oc1cc(-c2ccccc2)cnc1N)c1cc(F)ccc1Cl (centres unmarked) [WWQ-1093-75, 3-(1-(2-chloro-5-fluorophenyl)ethoxy)-2-amino-5-phenylpyridine] | 461 ± 2 | > 10000 | 14.4 ± 4.21 | 199 to 199.8 | 461 ± 2 | 33.2 | 24.5
CC(Oc1cc(-c2cn[nH]c2)cnc1N)c1cc(F)ccc1Cl (centres unmarked) [WWQ-1093-81, 3-(1-(2-chloro-5-fluorophenyl)ethoxy)-2-amino-5-pyrazolepyridine] | 16 ± 0.1 | 334 | 2.55 ± 0.16 | 183.8 to 184.6 | 16 ± 0.1 | 5.55 | 4.7
CC(Oc1cc(-c2ccccc2)cnc1N)c1c(Cl)ccc(F)c1Cl (centres unmarked) [WWQ-1093-83] | – | > 10000 | 6.06 ± 0.081 | 160.4 to 161.4 | > 10000 | 11.6 | 11.3
CC(Oc1cc(-c2ccc(N3CCNCC3)cc2)cnc1N)c1cc(F)ccc1Cl (centres unmarked) [WWQ-1093-85] | 37 ± 3 | 498 | 1.14 ± 0.012 | 191.1 to 193.7 | 37 ± 3 | 8.26 | 35.8
CC(Oc1cc(-c2ccc(C3CCNCC3)cc2)cnc1N)c1cc(F)ccc1Cl (centres unmarked) [WWQ-1093-87] | 48 ± 8 | 545 | > 10 | 189.8 to 191 | 48 ± 8 | 9.7 | 35.4
CC(Oc1cc(-c2cccc(N3CCNCC3)c2)cnc1N)c1cc(F)ccc1Cl (centres unmarked) [WWQ-1093-89] | 27 ± 2 | 334 | < 0.5 | 190.8 to 191.6 | 27 ± 2 | 2.26 | 8.43
CC(Oc1cc(-c2cccc(C3CCNCC3)c2)cnc1N)c1cc(F)ccc1Cl (centres unmarked) [WWQ-1093-91] | 35 ± 1 | 1250 | 0.956 | 192.1 to 193.4 | 35 ± 1 | 2.36 | 8.77

More lines, main results first:

IC50 [1, 6] [nM] | IC50 [2] [nM] | IC50 [5] [µM] | melting point [°C] | IC50 ([1]; Table 2, read-out: JAK2 IC50) [nM] | SMILES | IC50 [3] [µM] | IC50 [4] [µM]
26.5 ± 26.5 | 423 | 4.83 ± 0.082 | 189.8 to 191.3 | – | COc1ccc(F)c(Cl)c1C(C)Oc1cc(-c2cnn(C3CCNCC3)c2)cnc1N (centres unmarked) [WWQ-175, 4-{3-[1-(2-chloro-3-fluoro-6-methoxyphenyl)ethoxy]-2-aminopyridine}pyrazol-1-piperidine] | 0.916 | 11.3
3050 ± 204 | > 10000 | 6.32 ± 0.128 | 158.8 to 159.8 | – | C[C@@H](Oc1cc(-c2cccnc2)cnc1N)c1c(Cl)ccc(F)c1Cl [WWQ-189, (R)-5-[1-(2,6-dichloro-3-fluorophenyl)ethoxy]-[3,3′-dipyridine]-6-amine] | 11.1 | 13.2
804 ± 9 | 3440 | 1.17 ± 0.093 | 197.8 to 198.5 | – | C[C@@H](Oc1cc(-c2ccc(N3CCNCC3)nc2)cnc1N)c1c(Cl)ccc(F)c1Cl [WWQ-191, (R)-5-[1-(2,6-dichloro-3-fluorophenyl)ethoxy]-6′-piperazin-[3,3′-dipyridine]-6-amine] | 3.22 | 30.1
3400 ± 431 | > 10000 | 20.7 ± 0.394 | 192.2 to 193.4 | 3400 ± 431 | CC(Oc1cc(-c2cnn(C3CCNCC3)c2)cnc1N)C1CCCCC1 (centres unmarked) [WWQ-197, 4-{3-[1-cyclohexaneethoxy]-2-aminopyridine}pyrazol-1-piperidine] | 7.02 | 12.9
– | > 10000 | > 100 | – | 1120 ± 14 | CC(Oc1cc(-c2nccs2)cnc1N)c1cc(F)ccc1Cl (centres unmarked) [XFL-169] | 8.17 | 15.9
– | > 10000 | 11.9 ± 0.31 | – | 1840 ± 25 | CC(Oc1cc(-c2cn(C)cn2)cnc1N)c1cc(F)ccc1Cl (centres unmarked) [XFL-171] | 4.47 | 13.5
– | 7780 | > 100 | – | 931 ± 32 | CC(Oc1cc(-n2cccn2)cnc1N)c1cc(F)ccc1Cl (centres unmarked) [XFL-179] | > 50 | > 50
